Measurements published in ChEMBL document CHEMBL3044818, “Fungicide resistance status in French populations of the wheat eyespot fungi Oculimacula acuformis and Oculimacula yallundae” (Pest Manag Sci, 2013).
In brackets after ≈: the same amount, converted by molar mass.

Tested on: Oculimacula yallundae
Assay: Resistance index, ratio of EC50 for sterol 14alpha-demethylation inhibitor-resistant Oculimacula yallundae TriR1 to EC50 for wild type Oculimacula yallundae TriS by mycelial growth inhibition assay
Type: functional
Settings: not given

Row | Structure (SMILES) | Ratio EC50
1 | CCCN(CCOc1c(Cl)cc(Cl)cc1Cl)C(=O)n1ccnc1 [PROCHLORAZ] | 1.5
2 | OC(Cc1ccccc1Cl)(Cn1nc[nH]c1=S)C1(Cl)CC1 (centres undefined) [PROTHIOCONAZOLE] | 2.5

Tested on: Oculimacula yallundae
Assay: Fungicidal activity against prochloraz-susceptible Oculimacula yallundae isolate ProS assessed as inhibition of mycelial growth in presence of 10 g glucose incubated at 19 degC in dark for 4 weeks
Type: functional, organism-based
Settings: 672 h

Row | Structure (SMILES) | EC50 [µg/mL]
3 | CCCN(CCOc1c(Cl)cc(Cl)cc1Cl)C(=O)n1ccnc1 [PROCHLORAZ] | 0.04
4 | OC(Cc1ccccc1Cl)(Cn1nc[nH]c1=S)C1(Cl)CC1 (centres undefined) [PROTHIOCONAZOLE] | 0.5

Tested on: Oculimacula yallundae
Assay: Resistance index, ratio of EC50 for sterol 14alpha-demethylation inhibitor-resistant Oculimacula yallundae MDR to EC50 for sterol 14alpha-demethylation inhibitor-resistant Oculimacula yallundae TriR1 by mycelial growth inhibition assay
Type: functional
Settings: not given

Row | Structure (SMILES) | Ratio EC50
5 | CCCN(CCOc1c(Cl)cc(Cl)cc1Cl)C(=O)n1ccnc1 [PROCHLORAZ] | 2
6 | OC(Cc1ccccc1Cl)(Cn1nc[nH]c1=S)C1(Cl)CC1 (centres undefined) [PROTHIOCONAZOLE] | 1.8

Tested on: Oculimacula yallundae
Assay: Resistance index, ratio of EC50 for sterol 14alpha-demethylation inhibitor-resistant Oculimacula yallundae MDR to EC50 for sterol 14alpha-demethylation inhibitor-resistant Oculimacula yallundae TriR1 by germ tube elongation assay
Type: functional
Settings: not given

Row | Structure (SMILES) | Ratio EC50
7 | CCCN(CCOc1c(Cl)cc(Cl)cc1Cl)C(=O)n1ccnc1 [PROCHLORAZ] | 71
8 | OC(Cc1ccccc1Cl)(Cn1nc[nH]c1=S)C1(Cl)CC1 (centres undefined) [PROTHIOCONAZOLE] | 30

Tested on: Oculimacula yallundae
Assay: Resistance index, ratio of EC50 for sterol 14alpha-demethylation inhibitor-resistant Oculimacula yallundae TriR2 to EC50 for wild type Oculimacula yallundae TriS by mycelial growth inhibition assay
Type: functional
Settings: not given

Row | Structure (SMILES) | Ratio EC50
9 | CCCN(CCOc1c(Cl)cc(Cl)cc1Cl)C(=O)n1ccnc1 [PROCHLORAZ] | 30
10 | OC(Cc1ccccc1Cl)(Cn1nc[nH]c1=S)C1(Cl)CC1 (centres undefined) [PROTHIOCONAZOLE] | 2

Tested on: Oculimacula yallundae
Assay: Resistance index, ratio of EC50 for prochloraz-resistant Oculimacula yallundae isolate ProR2 to EC50 for prochloraz-susceptible Oculimacula yallundae isolate ProS by mycelial growth inhibition assay
Type: functional
Settings: not given

Row | Structure (SMILES) | Ratio EC50
11 | CCCN(CCOc1c(Cl)cc(Cl)cc1Cl)C(=O)n1ccnc1 [PROCHLORAZ] | 25
12 | OC(Cc1ccccc1Cl)(Cn1nc[nH]c1=S)C1(Cl)CC1 (centres undefined) [PROTHIOCONAZOLE] | 2.4

Tested on: Oculimacula acuformis
Assay: Fungicidal activity against Oculimacula acuformis assessed as inhibition of germ tube elongation incubated at 19 degC in dark for 48 hr
Type: functional, organism-based
Settings: not given

Row | Structure (SMILES) | EC50 [µg/mL]
13 | CCCN(CCOc1c(Cl)cc(Cl)cc1Cl)C(=O)n1ccnc1 [PROCHLORAZ] | 0.004 (≈ 0.0106 µM)
14 | OC(Cc1ccccc1Cl)(Cn1nc[nH]c1=S)C1(Cl)CC1 (centres undefined) [PROTHIOCONAZOLE] | 0.06 (≈ 0.174 µM)

Tested on: Oculimacula yallundae
Assay: Resistance index, ratio of EC50 for sterol 14alpha-demethylation inhibitor-resistant Oculimacula yallundae TriR2 to EC50 for sterol 14alpha-demethylation inhibitor-resistant Oculimacula yallundae TriR1 by mycelial growth inhibition assay
Type: functional
Settings: not given

Row | Structure (SMILES) | Ratio EC50
15 | CCCN(CCOc1c(Cl)cc(Cl)cc1Cl)C(=O)n1ccnc1 [PROCHLORAZ] | 20
16 | OC(Cc1ccccc1Cl)(Cn1nc[nH]c1=S)C1(Cl)CC1 (centres undefined) [PROTHIOCONAZOLE] | 0.8

Tested on: Oculimacula yallundae
Assay: Fungicidal activity against prochloraz-susceptible Oculimacula yallundae isolate ProS assessed as inhibition of germ tube elongation incubated at 19 degC in dark for 48 hr
Type: functional, organism-based
Settings: not given

Row | Structure (SMILES) | EC50 [µg/mL]
17 | CCCN(CCOc1c(Cl)cc(Cl)cc1Cl)C(=O)n1ccnc1 [PROCHLORAZ] | 0.004 (≈ 0.0106 µM)
18 | OC(Cc1ccccc1Cl)(Cn1nc[nH]c1=S)C1(Cl)CC1 (centres undefined) [PROTHIOCONAZOLE] | 0.06 (≈ 0.174 µM)

Tested on: Oculimacula yallundae
Assay: Resistance index, ratio of EC50 for sterol 14alpha-demethylation inhibitor-resistant Oculimacula yallundae TriR2 to EC50 for wild type Oculimacula yallundae TriS by germ tube elongation assay
Type: functional
Settings: not given

Row | Structure (SMILES) | Ratio EC50
19 | CCCN(CCOc1c(Cl)cc(Cl)cc1Cl)C(=O)n1ccnc1 [PROCHLORAZ] | 240
20 | OC(Cc1ccccc1Cl)(Cn1nc[nH]c1=S)C1(Cl)CC1 (centres undefined) [PROTHIOCONAZOLE] | 1.3

Tested on: Oculimacula yallundae
Assay: Resistance index, ratio of EC50 for sterol 14alpha-demethylation inhibitor-resistant Oculimacula yallundae MDR to EC50 for wild type Oculimacula yallundae TriS by mycelial growth inhibition assay
Type: functional
Settings: not given

Row | Structure (SMILES) | Ratio EC50
21 | CCCN(CCOc1c(Cl)cc(Cl)cc1Cl)C(=O)n1ccnc1 [PROCHLORAZ] | 3
22 | OC(Cc1ccccc1Cl)(Cn1nc[nH]c1=S)C1(Cl)CC1 (centres undefined) [PROTHIOCONAZOLE] | 4.5

Tested on: Oculimacula yallundae
Assay: Resistance index, ratio of EC50 for prochloraz-resistant Oculimacula yallundae isolate ProR2 to EC50 for prochloraz-susceptible Oculimacula yallundae isolate ProS by germ tube elongation inhibition assay
Type: functional
Settings: not given

Row | Structure (SMILES) | Ratio EC50
23 | CCCN(CCOc1c(Cl)cc(Cl)cc1Cl)C(=O)n1ccnc1 [PROCHLORAZ] | 75
24 | OC(Cc1ccccc1Cl)(Cn1nc[nH]c1=S)C1(Cl)CC1 (centres undefined) [PROTHIOCONAZOLE] | 1.5

Tested on: not listed separately
Assay: Selectivity index, ratio of EC50 for Oculimacula acuformis to EC50 for Oculimacula yallundae by germ tube elongation inhibition assay
Type: functional
Settings: not given

Row | Structure (SMILES) | Ratio EC50
25 | CCCN(CCOc1c(Cl)cc(Cl)cc1Cl)C(=O)n1ccnc1 [PROCHLORAZ] | 0.8
26 | OC(Cc1ccccc1Cl)(Cn1nc[nH]c1=S)C1(Cl)CC1 (centres undefined) [PROTHIOCONAZOLE] | 0.8

Tested on: Oculimacula yallundae
Assay: Resistance index, ratio of EC50 for sterol 14alpha-demethylation inhibitor-resistant Oculimacula yallundae MDR to EC50 for wild type Oculimacula yallundae TriS by germ tube elongation assay
Type: functional
Settings: not given

Row | Structure (SMILES) | Ratio EC50
27 | CCCN(CCOc1c(Cl)cc(Cl)cc1Cl)C(=O)n1ccnc1 [PROCHLORAZ] | 100
28 | OC(Cc1ccccc1Cl)(Cn1nc[nH]c1=S)C1(Cl)CC1 (centres undefined) [PROTHIOCONAZOLE] | 38

Tested on: Oculimacula yallundae
Assay: Fungicidal activity against Oculimacula yallundae assessed as inhibition of germ tube elongation incubated at 19 degC in dark for 48 hr
Type: functional, organism-based
Settings: not given

Row | Structure (SMILES) | EC50 [µg/mL]
29 | CCCN(CCOc1c(Cl)cc(Cl)cc1Cl)C(=O)n1ccnc1 [PROCHLORAZ] | 0.005 (≈ 0.0133 µM)
30 | OC(Cc1ccccc1Cl)(Cn1nc[nH]c1=S)C1(Cl)CC1 (centres undefined) [PROTHIOCONAZOLE] | 0.08 (≈ 0.232 µM)

Tested on: Oculimacula yallundae
Assay: Resistance index, ratio of EC50 for prochloraz-resistant Oculimacula yallundae isolate ProR1 to EC50 for prochloraz-susceptible Oculimacula yallundae isolate ProS by mycelial growth inhibition assay
Type: functional
Settings: not given

Row | Structure (SMILES) | Ratio EC50
31 | CCCN(CCOc1c(Cl)cc(Cl)cc1Cl)C(=O)n1ccnc1 [PROCHLORAZ] | 25
32 | OC(Cc1ccccc1Cl)(Cn1nc[nH]c1=S)C1(Cl)CC1 (centres undefined) [PROTHIOCONAZOLE] | 1.6

Tested on: Oculimacula yallundae
Assay: Resistance index, ratio of EC50 for sterol 14alpha-demethylation inhibitor-resistant Oculimacula yallundae TriR1 to EC50 for wild type Oculimacula yallundae TriS by germ tube elongation assay
Type: functional
Settings: not given

Row | Structure (SMILES) | Ratio EC50
33 | CCCN(CCOc1c(Cl)cc(Cl)cc1Cl)C(=O)n1ccnc1 [PROCHLORAZ] | 1.4
34 | OC(Cc1ccccc1Cl)(Cn1nc[nH]c1=S)C1(Cl)CC1 (centres undefined) [PROTHIOCONAZOLE] | 1.3

Tested on: not listed separately
Assay: Selectivity index, ratio of EC50 for Oculimacula acuformis to EC50 for Oculimacula yallundae in presence of 10 g glucose by mycelial growth inhibition assay
Type: functional
Settings: not given

Row | Structure (SMILES) | Ratio EC50
35 | CCCN(CCOc1c(Cl)cc(Cl)cc1Cl)C(=O)n1ccnc1 [PROCHLORAZ] | 0.8
36 | OC(Cc1ccccc1Cl)(Cn1nc[nH]c1=S)C1(Cl)CC1 (centres undefined) [PROTHIOCONAZOLE] | 1.3

Tested on: Oculimacula acuformis
Assay: Fungicidal activity against Oculimacula acuformis assessed as inhibition of mycelial growth in presence of 10 g glucose incubated at 19 degC in dark for 4 weeks
Type: functional, organism-based
Settings: 672 h

Row | Structure (SMILES) | EC50 [µg/mL]
37 | CCCN(CCOc1c(Cl)cc(Cl)cc1Cl)C(=O)n1ccnc1 [PROCHLORAZ] | 0.04
38 | OC(Cc1ccccc1Cl)(Cn1nc[nH]c1=S)C1(Cl)CC1 (centres undefined) [PROTHIOCONAZOLE] | 0.5

Tested on: Oculimacula yallundae
Assay: Fungicidal activity against Oculimacula yallundae assessed as inhibition of mycelial growth in presence of 10 g glucose incubated at 19 degC in dark for 4 weeks
Type: functional, organism-based
Settings: 672 h

Row | Structure (SMILES) | EC50 [µg/mL]
39 | CCCN(CCOc1c(Cl)cc(Cl)cc1Cl)C(=O)n1ccnc1 [PROCHLORAZ] | 0.05
40 | OC(Cc1ccccc1Cl)(Cn1nc[nH]c1=S)C1(Cl)CC1 (centres undefined) [PROTHIOCONAZOLE] | 0.4

Tested on: Oculimacula yallundae
Assay: Resistance index, ratio of EC50 for prochloraz-resistant Oculimacula yallundae isolate ProR1 to EC50 for prochloraz-susceptible Oculimacula yallundae isolate ProS by germ tube elongation inhibition assay
Type: functional
Settings: not given

Row | Structure (SMILES) | Ratio EC50
41 | CCCN(CCOc1c(Cl)cc(Cl)cc1Cl)C(=O)n1ccnc1 [PROCHLORAZ] | 63
42 | OC(Cc1ccccc1Cl)(Cn1nc[nH]c1=S)C1(Cl)CC1 (centres undefined) [PROTHIOCONAZOLE] | 1.2

Tested on: Oculimacula yallundae
Assay: Resistance index, ratio of EC50 for sterol 14alpha-demethylation inhibitor-resistant Oculimacula yallundae TriR2 to EC50 for sterol 14alpha-demethylation inhibitor-resistant Oculimacula yallundae TriR1 by germ tube elongation assay
Type: functional
Settings: not given

Row | Structure (SMILES) | Ratio EC50
43 | CCCN(CCOc1c(Cl)cc(Cl)cc1Cl)C(=O)n1ccnc1 [PROCHLORAZ] | 171
44 | OC(Cc1ccccc1Cl)(Cn1nc[nH]c1=S)C1(Cl)CC1 (centres undefined) [PROTHIOCONAZOLE] | 1
